A value given as a limit tells only on which side of the number the result lay.

Sequence of S1P1 (P21453 whole entry): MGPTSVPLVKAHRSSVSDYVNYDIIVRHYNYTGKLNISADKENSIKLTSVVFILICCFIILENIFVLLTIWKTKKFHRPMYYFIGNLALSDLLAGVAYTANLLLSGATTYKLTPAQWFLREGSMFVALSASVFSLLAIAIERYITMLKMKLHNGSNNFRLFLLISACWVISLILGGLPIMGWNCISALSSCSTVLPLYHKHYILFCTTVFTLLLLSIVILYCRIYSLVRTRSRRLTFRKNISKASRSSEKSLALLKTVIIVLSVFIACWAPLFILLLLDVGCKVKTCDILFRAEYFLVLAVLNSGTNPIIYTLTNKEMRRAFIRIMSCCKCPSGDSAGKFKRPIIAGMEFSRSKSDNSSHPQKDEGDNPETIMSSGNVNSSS

One test addresses S1P1 (Homo sapiens (Human), UniProt P21453). The test can be described thus: S1P1 agonist assay (Ec50 S1P1Ag). Type of test: cell-based.
Conditions: not given
An excerpt:
The exact dosage will depend upon the activity of the compound, mode of administration, on the therapy desired, form in which administered, the subject to be treated and the body weight of the subject to be treated, and the preference and experience of the physician or veterinarian in charge. S1P1 agonist bioactivity of the compounds of the invention can be determined by use of an in vitro assay system which measures the activation of S1P1, which can be expressed as EC50 values, as are well known in the art inhibitors of the invention can be determined by the method described in the Examples.
As usually defined, the EC50 is the concentration giving half of the maximal effect. Lower therefore signals an effect from little substance. In turn, `COc1cc(-c2nc(-c3ccncc3)no2)ccc1C` [Compound 39] displayed an EC50 of 0.418 µM. In the case of `NS(=O)(=O)c1ccc(-c2noc(-c3cc(Cl)nc(Cl)c3)n2)cc1` [Compound 22], the EC50 was determined as 1.03 µM. Compound `CCOc1ccc(-c2nc(-c3cccc(C)c3C)no2)cc1OCC` [Compound 166] showed a concentration for a half-maximal effect (EC50) of 0.0125 µM. In turn, `COc1cc(-c2noc(-c3ccnc(Cl)c3)n2)ccc1C` [Compound 29] showed a concentration for a half-maximal effect (EC50) of 0.576 µM. Consider `CCOc1ccc(-c2nc(-c3ccc(CO)c(C)c3)no2)cc1OCC` [Compound 200], for which the concentration for a half-maximal effect (EC50) amounted to 0.104 µM. On the same count and under the same terms, the result for `CCOc1ccc(-c2nc(-c3cccc4c3CCC4=O)no2)cc1OCC` [Compound 227] reads 0.0213 µM; that for `CCOc1ccc(-c2nc(-c3cc4ccccc4cn3)no2)cc1OCC` [Compound 208], 0.154 µM; that for `CCOc1ccc(-c2nc(-c3cccc4c3CCC4O)no2)cc1C(F)(F)F` (centres unmarked) [Compound 260, 4-(5-(4-ethoxy-3-(trifluoromethyl)phenyl)-1,2,4-oxadiazol-3-yl)-2,3-dihydro-1H-inden-1-ol], under 0.0005 µM. For `COc1cc(-c2noc(-c3ccncc3)n2)ccc1C` [Compound 44], the EC50 amounted to 0.731 µM. The compound `CCOc1ccc(-c2nc(-c3ccc4[nH]cc(CN(C)CCO)c4c3)no2)cc1OCC` [Compound 240] had an EC50 of 3.1 µM. Still for that read-out and setting: under `CCOc1ccc(-c2nc(-c3cccc4[nH]cc(CNCCN(CC)CC)c34)no2)cc1OCC` [Compound 204] stands 0.0322 µM; under `CCOc1ccc(-c2nc(-c3cccc4c3CCC4O)no2)cc1[N+](=O)[O-]` (centres unmarked) [Compound 266, 4-(5-(4-ethoxy-3-nitrophenyl)-1,2,4-oxadiazol-3-yl)-2,3-dihydro-1H-inden-1-ol], 0.224 µM.

`CCOc1ccc(-c2nc(-c3ccc(Br)c(C)c3)no2)cc1OCC` [Compound 185] yielded an EC50 of 0.245 µM. `CCOc1ccc(-c2nc(-c3cccc4[nH]cc(CNCCN(C)C)c34)no2)cc1OCC` [Compound 222] showed a 50% effective concentration (EC50) of 0.284 µM. As for `CCOc1ccc(-c2nc(-c3ccnc(CNC(C)(C)CO)c3)no2)cc1OCC` [Compound 218], it took 0.132 µM to reach a half-maximal effect (EC50). As for `CCOc1ccc(-c2nc(-c3ccc4[nH]cc(CNCCO)c4c3)no2)cc1OCC` [Compound 239], the EC50 was 0.867 µM. For the compound `CCOc1ccc(-c2nc(-c3ccc4ccccc4c3)no2)cc1OCC` [Compound 212], the EC50 was 0.341 µM. Still for that read-out and setting: the result for `FC(F)(F)c1cc(-c2nc(-c3cccnc3)no2)ccc1-c1ccccc1` [Compound 63] reads 0.129 µM; that for `CCOc1ccc(-c2nc(-c3ccc(CCN4CCCC4)cc3)no2)cc1OCC` [Compound 191], 0.0538 µM; that for `CCOc1ccc(-c2nc(-c3ccnc(C(=O)O)c3)no2)cc1OCC` [Compound 241], 0.0956 µM.

Compound `COc1cc(-c2nc(-c3ccc(C)c(OC)c3)no2)ccn1` [Compound 40] yielded a half-maximal effective concentration (EC50) of 0.621 µM. `CCOc1ccc(-c2nc(-c3ccc(C#N)cc3C)no2)cc1OCC` [Compound 122]: the EC50 stood at 0.005 µM.

On to `CCOc1ccc(-c2nc(-c3cncc(C(=O)OC)c3)no2)cc1OCC` [Compound 220], for which the response was half-maximal at 0.028 µM (EC50).

Compound `CC(C)Oc1ccc(-c2nc(-c3cccc4c3CCC4O)no2)cc1C(F)(F)F` (centres unmarked) [Compound 259, 4-(5-(4-isopropoxy-3-(trifluoromethyl)phenyl)-1,2,4-oxadiazol-3-yl)-2,3-dihydro-1H-inden-1-ol] returned a 50% effective concentration (EC50) of under 0.0005 µM.

`COc1cc(-c2noc(-c3ccnnc3)n2)ccc1C` [Compound 41] returned an EC50 of 7.7 µM. The compound `CCOc1ccc(-c2nc(-c3cccc(N)c3C)no2)cc1OCC` [Compound 165] had a concentration for a half-maximal effect (EC50) of 0.0294 µM.

`CCOc1cccc(-c2nc(-c3ccncc3C)no2)c1` [Compound 64] came in with a half-maximal effective concentration (EC50) of 0.228 µM. `Cc1cnccc1-c1noc(-c2ccc(C)c(C(F)(F)F)c2)n1` [Compound 68] had an EC50 of 0.0377 µM. Still for that read-out and setting: the result for `CC(C)Oc1ccc(-c2ncc(-c3cccc4c3CCC4NCCO)o2)cc1C#N` (centres unmarked) [Compound 271] reads under 0.0005 µM; that for `CCOc1cccc(-c2nc(-c3ccncc3)no2)c1` [Compound 38], 0.938 µM.

For the compound `CC(C)Oc1ccc(-c2nc(-c3cccc4c3CCC4NCCO)no2)cc1C(F)(F)F` (centres unmarked) [Compound 263, 2-(4-(5-(4-isopropoxy-3-(trifluoromethyl)phenyl)-1,2,4-oxadiazol-3-yl)-2,3-dihydro-1H-inden-1-ylamino)ethanol], a half-maximal response (EC50) required 0.01 µM. Take `CCOc1ccc(-c2ncc(-c3ccncc3)o2)cc1OCC` [Compound 268]: the midpoint of the response, the EC50, lay at 0.0107 µM. On to `CCOc1ccc(-c2nc(-c3cccc4[nH]cc(CN(C)CCO)c34)no2)cc1OCC` [Compound 221], for which the half-maximal effective concentration (EC50) was found to be 1.4 µM. The compound `CCOc1ccc(-c2nc(-c3ccc4c(c3)NC(=O)C4)no2)cc1OCC` [Compound 155] showed an EC50 of 0.0017 µM. Same read-out and setting: under `CCOc1ccc(-c2nc(-c3cccc4c3CCC4NCCN(CC)CC)no2)cc1OCC` (centres unmarked) [Compound 243] stands 0.0007 µM; under `CCOc1ccc(-c2nc(-c3cccc(Br)c3C)no2)cc1OCC` [Compound 121], 0.639 µM; under `COc1cc(-c2nc(-c3cncc(C)c3)no2)ccc1C` [Compound 74], 0.601 µM.

As to `CCCCc1ccc(-c2nc(-c3ccncc3)no2)cc1` [Compound 51], the concentration for a half-maximal effect (EC50) worked out at 0.847 µM. Turning to `CCOc1ccc(-c2nc(-c3cccc4c3CCN4CCO)no2)cc1OCC` [Compound 234], the EC50 was under 0.0005 µM.

For the compound `CCOc1ccc(-c2nc(-c3ccc(CNCCO)cc3C)no2)cc1OCC` [Compound 252], the EC50 was found to be 0.0101 µM.

As to `CCOc1ccc(-c2nc(-c3ccc(CN(C)C)cc3)no2)cc1OCC` [Compound 81], the EC50 worked out at 0.123 µM. The compound `CCOc1ccc(-c2nc(-c3ccc4occc4c3)no2)cc1OCC` [Compound 253] came in with a half-maximal effective concentration (EC50) of 0.0266 µM. The compound `COc1cc(-c2nc(-c3cccnc3)no2)ccc1C` [Compound 75] returned an EC50 of 0.274 µM. On the same count and under the same terms, under `COc1cc(-c2noc(-c3cc(Cl)nc(Cl)c3)n2)ccc1C` [Compound 45] stands 1.48 µM; under `CCOc1ccc(-c2nnc(-c3ccncc3)o2)cc1OCC` [Compound 89], 0.224 µM. Take `CCOc1ccc(-c2cc(-c3ccncc3)no2)cc1OCC` [Compound 269]: the EC50 stood at 0.112 µM.

As for `CCOc1ccc(-c2nc(-c3cccc4c3CCC4O)no2)cc1C#N` (centres unmarked) [Compound 262, 2-ethoxy-5-(3-(1-hydroxy-2,3-dihydro-1H-inden-4-yl)-1,2,4-oxadiazol-5-yl)benzonitrile], the concentration for a half-maximal effect (EC50) was under 0.0005 µM. `CCOc1ccc(-c2nc(-c3cccc(CN(C)C)c3)no2)cc1OCC` [Compound 78] had a concentration for a half-maximal effect (EC50) of 0.0452 µM. Consider `CCOc1ccc(-c2nc(-c3cccc4c3CCC4N3CC[C@@H](O)C3)no2)cc1OCC` (some centres unmarked) [Compound 250], for which the midpoint of the response, the EC50, lay at 0.0061 µM. The compound `CCOc1ccc(-c2nc(-c3ccc4c(c3)NCC4)no2)cc1OCC` [Compound 150] yielded an EC50 of 0.0042 µM. Still for that read-out and setting: under `CCOc1ccc(-c2nc(-c3cccc4[nH]cc(CNC)c34)no2)cc1OCC` [Compound 233] stands 0.581 µM; under `CCOc1ccc(-c2nc(-c3cccc4c3CCC4NC(C)(C)CO)no2)cc1OCC` (centres unmarked) [Compound 216], 0.0915 µM; under `CCOc1ccc(-c2nc(-c3cccc4[nH]cc(CN5CC[C@H](O)C5)c34)no2)cc1OCC` [Compound 230], 0.3 µM.

With `CCOc1cccc(-c2nc(-c3cncc(C)c3)no2)c1` [Compound 66], it took 1.99 µM to reach a half-maximal effect (EC50). `CCOc1ccc(-c2nc(-c3cccc(CN4CCCC4)c3)no2)cc1OCC` [Compound 77] showed a 50% effective concentration (EC50) of 0.45 µM. The same measure, in the same setting: the result for `COc1cc(-c2noc(-c3cc(CC(C)C)no3)n2)ccc1C` [Compound 30] reads 1.39 µM; that for `CCOc1ccc(-c2nc(-c3cccc4[nH]cc(CN5CC[C@@H](O)C5)c34)no2)cc1OCC` [Compound 231], 0.12 µM; that for `Cc1ccc(-c2nc(-c3ccnc(N)c3)no2)cc1C(F)(F)F` [Compound 69], 0.197 µM.

In the case of `CCOc1ccc(-c2nc(-c3ccc4cc[nH]c4c3)no2)cc1OCC` [Compound 124], the response was half-maximal at 0.003 µM (EC50). With `CCOc1ccc(-c2nc(-c3ccc(CN4CCCC4)cc3)no2)cc1OCC` [Compound 80], a half-maximal effect (EC50) was put at 0.0865 µM. Turning to `CCOc1ccc(-c2nc(-c3cccc4[nH]cc(CNC(C)(C)CO)c34)no2)cc1OCC` [Compound 213], a half-maximal effect (EC50) was put at 0.636 µM. `CCOc1ccc(-c2nc(-c3ccc4[nH]cc(CNCCN(CC)CC)c4c3)no2)cc1OCC` [Compound 224] returned an EC50 of 0.485 µM.

Turning to `CCOc1ccc(-c2nc(-c3cccc4c3CCN4CCN(CC)CC)no2)cc1OCC` [Compound 232], the concentration giving a half-maximal response (EC50) was 0.0939 µM. In turn, `COc1cc(-c2noc(-c3cccnc3)n2)ccc1C` [Compound 24] displayed an EC50 of 1.8 µM. Compound `CCOc1ccc(-c2nc(-c3cncc(CO)c3)no2)cc1OCC` [Compound 225] showed a 50% effective concentration (EC50) of 0.0245 µM.

Still in this test, the particulars now being: unit μM/uM.
`Fc1cc(-c2nc(-c3ccc(C(F)(F)F)cc3)no2)ccn1` [Compound 6]: the EC50 was found to be 4.1 µM. Compound `COc1cc(-c2nc(-c3ccc(C(F)(F)F)cc3)no2)ccn1` [Compound 1] gave an EC50 of 466 µM. On to `COc1cc(-c2noc(-c3cc4ccccc4s3)n2)ccc1C` [Compound 47], for which the response was half-maximal at 31.8 µM (EC50). Same read-out and setting: the result for `CCOc1ccc(-c2nc(-c3cccc(OC(F)(F)F)c3)no2)cc1OCC` [Compound 205] reads 10 µM; that for `Cc1cc(-c2noc(-c3ccc(C)c(C(F)(F)F)c3)n2)ccn1` [Compound 70], 7.08 µM; that for `FC(F)(F)c1ccc(-c2noc(-c3ccnnc3)n2)cc1` [Compound 4], 7.8 µM. In turn, `[O-][n+]1ccc(-c2nc(-c3ccc(C(F)(F)F)cc3)no2)cc1` [Compound 3] came in with a 50% effective concentration (EC50) of 5.9 µM.

For the compound `CC(C)(C)c1cc(-c2nc(-c3ccc(S(N)(=O)=O)cc3)no2)cc(C(C)(C)C)c1` [Compound 14], the EC50 was 12.3 µM. `COc1cc(-c2nc(-c3ccc(S(N)(=O)=O)cc3)no2)ccn1` [Compound 19]: a half-maximal response (EC50) required 12 µM.

The record behind these values is patent US10544136B2, “Modulators of sphingosine phosphate receptors” (The Scripps Research Institute, priority 2008, dated 2020).
